From patent US11384379B2, “Method for producing a protein and disaccharide using a Talaromyces cellulolyticus” (AJINOMOTO CO., INC., priority 2017, dated 2022)

Legend:
[1] = system: T. cellulolyticus strains F09pyr+ and F09Δgh1-2; experiment: Halo assay for secretory cellulase by various beta-linked glucose oligosaccharides (CMC minimal medium, Congo Red); type: cell-based, Talaromyces cellulolyticus; settings: 30° C. for 36 hours
Description: The strains F09pyr+ and F09Δgh1-2 were each grown on the minimal medium containing glucose as the carbon source for 3 days. […] After the culture, a Congo Red solution obtained by mixing 50 mM sodium phosphate buffer (pH 7.0) and 2 mg/ml Congo Red (Nacalai Tesque) in a volume ratio of 10:1 was added to the plate so that the Congo Red solution covered the entire plate, and the plate was left to stand for 30 minutes at a room temperature. Then, the Congo Red solution on the plate was removed, and sodium phosphate buffer (50 mM, pH 7.0) was added to the plate so that the sodium phosphate buffer covered the entire plate. The plate was again left to stand for 30 minutes at a room temperature. Then, the sodium phosphate buffer on the plate was removed, the surface of the plate was dried lightly, and observation of halo was carried out.

[2] = system: T. cellulolyticus strain F09ΔcreA; experiment: Cellulase production fed-batch culture using gentiobiose, filter paper degradation activity; type: cell-based, Talaromyces cellulolyticus; settings: carbon source other than glucose in the feed solution, compared with cellobiose; 72 hours
Description: The T. cellulolyticus strains F09ΔcreA and F09Δgh1-2ΔcreA were each inoculated into PD medium, and cultured at 30° C. One agar disk excised from around the edge of a formed colony was inoculated into 20 mL of a liquid culture medium containing 20 g/L glucose, 24 g/L KH2PO4, 5 g/L (NH4)2SO4, 2 g/L Urea, 1.2 g/L MgSO4-7H2O, 0.01 g/L ZnSO4-7H2O, 0.01 g/L MnSO4-5H2O, 0.01 g/L CuSO4-5H2O, 1 g/L Corn steep liquor (C4648, SIGMA), and 1 g/L Tween 80, and gyratory culture (220 rpm) was carried out at 30° C. for 5 days as a pre-culture. […]
The filter paper degradation activity (FPU/ml) of the obtained enzyme solutions was measured according to the following procedure, and the yield of the activity per carbon source was calculated on the basis of the consumption amount of sugar during the cultures by which the respective enzyme solutions were obtained.
To a 100-μl aliquot of a citrate buffer (50 mM, pH 5.0) containing a filter paper (Whatman No. 1, GE Healthcare) cut to 6 mm×10 mm, 50 μl of an appropriately diluted sample were added, and a reaction was carried out at 50° C. for 1 hour. […] Then, the absorbance at 540 nm of the supernatant was measured, and the value of the blank was subtracted therefrom, to calculate an increase in absorbance. […]

[3] = system: T. cellulolyticus strains Y-94, W363Frep, W449Frep, and C267Prep; experiment: Halo assay of strains Y-94, W363Frep, W449Frep, C267Prep with or without gentiobiose; type: cell-based, Talaromyces cellulolyticus; settings: 1 mM gentiobiose in combination with W363F, W449F or C267P mutation in the gh1-2 gene; 5 days
Description: (§1) The strains Y-94, W363Frep, W449Frep, and C267Prep were each grown on the minimal medium containing CMC as the carbon source and on the minimal medium containing CMC as the carbon source and 1 mM gentiobiosefor 5 days according to the procedure described in Example (1-4). After the culture, a Congo Red solution obtained by mixing 50 mM sodium phosphate buffer (pH 7.0) and 2 mg/ml Congo Red (Nacalai Tesque) in a volume ratio of 10:1 was added to the plate so that the Congo Red solution covered the whole of the plate, and the plate was left to stand for 30 minutes at a room temperature. Then, the Congo Red solution on the plate was removed, and sodium phosphate buffer (50 mM, pH 7.0) was added to the plate so that the sodium phosphate buffer covered the whole of the plate. The plate was again left to stand for 30 minutes at a room temperature. Then, the sodium phosphate buffer on the plate was removed, the surface of the plate was dried lightly, and the diameter and width of the visualized halo were measured.

[4] = system: T. cellulolyticus strains F09pyrF+, F09Δgh1-2, F09Δbgl3A, and F09Δgh1-2Δbgl3A; experiment: Plate halo assay of double deficient strain of GH1-2 and BGL3A with or without gentiobiose; type: cell-based, Talaromyces cellulolyticus; settings: 1 mM gentiobiose in combination with double disruption of the gh1-2 gene and the bgl3A gene; 5 days
Description: as §1, with “F09pyrF+” for “Y-94, W363Frep, W449Frep,”, “F09Δgh1-2 constructed in Example (1-1), the strain F09Δbgl3A constructed in Example (5-1), and the strain F09Δgh1-2Δbgl3A constructed in Example (7-1)” for “C267Prep”

[5] = system: HSA expressing strain derived from the T. cellulolyticus strain F09ΔyscB; settings: feeding solution Gentiobiose 80 g/L vs Cellobiose 80 g/L; 45 hours
Description: The HSA expressing strain derived from the T. cellulolyticus strain F09ΔyscB was inoculated into PD medium, and cultured at 30° C. One agar disk excised from around the edge of a formed colony was inoculated into 20 mL of a liquid culture medium containing 20 g/L glucose, 24 g/L KH2PO4, 5 g/L (NH4)2SO4, 2 g/L Urea, 1.2 g/L MgSO4-7H2O, 0.01 g/L ZnSO4-7H2O, 0.01 g/L MnSO4-5H2O, 0.01 g/L CuSO4-5H2O, 1 g/L Corn steep liquor (C4648, SIGMA), and 1 g/L Tween 80, and gyratory culture (220 rpm) was carried out at 30° C. for 5 days as a pre-culture. Then, 15 mL of the pre-culture broth was inoculated into 300 mL of a liquid culture medium containing 15 g/L glucose, 12 g/L KH2PO4, 10 g/L (NH4)2SO4, 1.2 g/L MgSO4-7H2O, 0.01 g/L ZnSO4-7H2O, 0.01 g/L MnSO4-5H2O, 0.01 g/L CuSO4-5H2O, 5 g/L Corn steep liquor, 1 g/L Tween 80, and 0.5 mL/L DISFOAM GD (NOF CORPORATION) in a jar fermenter, and fed-batch culture was carried out for 45 hours at a culture temperature of 30° C. and an aeration volume of 1/2 vvm, while controlling the dissolved oxygen concentration to be 5% or higher of the saturated oxygen concentration by stirring and controlling the pH to be 5 with using ammonia gas. […]
HSA was quantified by ELISA using Albumin ELISA Quantitation Kit, Human (Bethyl Laboratories, inc.).

Substance: gentiobiose
- complementation of the decrease in the ability for secretory production of cellulase due to deletion of the gh1-2 gene (halo) ([1]; 0.01 mM in CMC minimal medium): complemented the decrease in the ability for secretory production of cellulase more strongly than other beta-linked glucose oligosaccharides
- complementation of the decrease in the ability for secretory production of cellulase due to deletion of the gh1-2 gene (halo) ([1]; 1 mM in CMC minimal medium): strongly complements the decrease in the ability for secretory production of cellulase
- efficiency of cellulase production (filter paper degradation activity, yield per carbon source) [2]: cellulase production with higher efficiency
- secretory production of cellulase (diameter and width of degradation halo) [3]: secretory production of cellulase is synergistically improved
- secretory production of cellulase (width of degradation halo) [4]: secretory production of cellulase is synergistically improved
- secretory production amount of HSA [5]: greater in the case of feeding gentiobiose than in the case of feeding cellobiose
